Data: PubChem BioAssay AID1963842 (Molecular Pharmacology Branch, DTP, NCI, 2024)

Tested on: 677734-321-R-J1-PDC complex spheroid viability
Experiment: Anticancer human tumor 677734-321-R-J1-PDC patient-derived soft tissue sarcoma cell line growth inhibition [POLQ]
Details: for IC50: curve of first compound; for viability, T/C: stronger effect = lower value; active = viability on the fitted dose curve at most 10% of control; inactive = the rest
In short: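 Three-cell-type spheroids modelling solid tumor plus stroma served as the readout system; POL inhibitors were tested individually and in combination, concentration ranges set by clinical Cmax where known.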

[1] = second compound 0.0316 µM, first compound 0.0316 µM
[2] = second compound 0.0316 µM, first compound 0.1 µM
[3] = second compound 0.0316 µM, first compound 0.316 µM
[4] = second compound 0.0316 µM, first compound 1 µM
[5] = second compound 0.0316 µM, first compound 3.16 µM
[6] = second compound 0.0316 µM, first compound 10 µM
[7] = second compound 0.1 µM, first compound 0.0316 µM
[8] = second compound 0.1 µM, first compound 0.1 µM
[9] = second compound 0.1 µM, first compound 0.316 µM
[10] = second compound 0.1 µM, first compound 1 µM
[11] = second compound 0.1 µM, first compound 3.16 µM
[12] = second compound 0.1 µM, first compound 10 µM
[13] = second compound 0.316 µM, first compound 0.0316 µM
[14] = second compound 0.316 µM, first compound 0.1 µM
[15] = second compound 0.316 µM, first compound 0.316 µM
[16] = second compound 0.316 µM, first compound 1 µM
[17] = second compound 0.316 µM, first compound 3.16 µM
[18] = second compound 0.316 µM, first compound 10 µM
[19] = second compound 1 µM, first compound 0.0316 µM
[20] = second compound 1 µM, first compound 0.1 µM
[21] = second compound 1 µM, first compound 0.316 µM
[22] = second compound 1 µM, first compound 1 µM
[23] = second compound 1 µM, first compound 3.16 µM
[24] = second compound 1 µM, first compound 10 µM
[25] = second compound 3.16 µM, first compound 0.0316 µM
[26] = second compound 3.16 µM, first compound 0.1 µM
[27] = second compound 3.16 µM, first compound 0.316 µM
[28] = second compound 3.16 µM, first compound 1 µM
[29] = second compound 3.16 µM, first compound 3.16 µM
[30] = second compound 3.16 µM, first compound 10 µM
[31] = second compound 10 µM, first compound 0.0316 µM
[32] = second compound 10 µM, first compound 0.1 µM
[33] = second compound 10 µM, first compound 0.316 µM
[34] = second compound 10 µM, first compound 1 µM
[35] = second compound 10 µM, first compound 3.16 µM
[36] = second compound 10 µM, first compound 10 µM
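Note: spheroids exposed to compounds for one week.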
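Throughout, for viability, T/C: 100% = vehicle DMSO treated spheroids.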

CC1COCCN1c1cc(C2(O)CC3CCC(C2)O3)c2cnn(-c3ccn[nH]3)c2n1 (stereo not drawn) + COC1C(OC(N)=O)C(O)C(Oc2ccc3c(O)c(NC(=O)c4ccc(O)c(CC=C(C)C)c4)c(=O)oc3c2C)OC1(C)C
87.2 nM: IC50 (second compound 0.316 µM)
150 nM: IC50 (second compound 0.1 µM)
131 nM: IC50 (second compound 0.0316 µM)
85.8 nM: IC50 (second compound 10 µM)
97 nM: IC50 (second compound 3.16 µM)
inactive: viability, T/C [1] 87.1% | viability, T/C [2] 58.1% | viability, T/C [3] 24.2% | viability, T/C [4] 16.8% | viability, T/C [5] 17.9% | viability, T/C [6] 16.3% | viability, T/C [7] 92.9% | viability, T/C [8] 64.7% | viability, T/C [9] 22.7% | viability, T/C [10] 16.4% | viability, T/C [11] 13.5% | viability, T/C [12] 13.3% | viability, T/C [13] 80.2% | viability, T/C [14] 46.2% | viability, T/C [15] 22.6% | viability, T/C [16] 19.1% | viability, T/C [17] 14.7% | viability, T/C [18] 13.8% | viability, T/C [19] 92.5% | viability, T/C [20] 54.2% | viability, T/C [21] 18.6% | viability, T/C [22] 15.9% | viability, T/C [23] 17.1% | viability, T/C [24] 14.2% | viability, T/C [25] 85.3% | viability, T/C [26] 49% | viability, T/C [27] 25.4% | viability, T/C [28] 16.7% | viability, T/C [29] 15.2% | viability, T/C [30] 14.6% | viability, T/C [31] 89.6% | viability, T/C [32] 43.9% | viability, T/C [33] 21.3% | viability, T/C [34] 15.6% | viability, T/C [35] 16.1% | viability, T/C [36] 15.4%
115 nM: IC50 (second compound 1 µM)

CCc1cc2c(N3CCc4c(cc(Cn5ccnc5)cc4-c4cn(C)nc4C(F)(F)F)C3=O)cc(C)nc2c(OC)n1 + COC1C(OC(N)=O)C(O)C(Oc2ccc3c(O)c(NC(=O)c4ccc(O)c(CC=C(C)C)c4)c(=O)oc3c2C)OC1(C)C
inactive: viability, T/C [1] 111% | viability, T/C [2] 110% | viability, T/C [3] 94.5% | viability, T/C [4] 98.2% | viability, T/C [5] 77.7% | viability, T/C [6] 53.4% | viability, T/C [7] 106% | viability, T/C [8] 111% | viability, T/C [9] 97.7% | viability, T/C [10] 98.8% | viability, T/C [11] 73.7% | viability, T/C [12] 59.3% | viability, T/C [13] 112% | viability, T/C [14] 108% | viability, T/C [15] 98.7% | viability, T/C [16] 96.9% | viability, T/C [17] 79.5% | viability, T/C [18] 49.4% | viability, T/C [19] 124% | viability, T/C [20] 105% | viability, T/C [21] 108% | viability, T/C [22] 93.4% | viability, T/C [23] 75.5% | viability, T/C [24] 52.9% | viability, T/C [25] 109% | viability, T/C [26] 111% | viability, T/C [27] 103% | viability, T/C [28] 98.2% | viability, T/C [29] 82% | viability, T/C [30] 54.4% | viability, T/C [31] 108% | viability, T/C [32] 110% | viability, T/C [33] 98.4% | viability, T/C [34] 91.4% | viability, T/C [35] 67.3% | viability, T/C [36] 50.8%
> 10000 nM: IC50 (second compound 0.0316 µM) | IC50 (second compound 0.1 µM) | IC50 (second compound 0.316 µM) | IC50 (second compound 1 µM) | IC50 (second compound 3.16 µM) | IC50 (second compound 10 µM)

O=C(Nc1ccc(O)c(NS(=O)(=O)c2ccc(F)cc2)c1)c1ccc(-c2ccccc2)cc1 + COC1C(OC(N)=O)C(O)C(Oc2ccc3c(O)c(NC(=O)c4ccc(O)c(CC=C(C)C)c4)c(=O)oc3c2C)OC1(C)C
7580 nM: IC50 (second compound 0.1 µM)
8780 nM: IC50 (second compound 0.316 µM)
8180 nM: IC50 (second compound 3.16 µM)
7480 nM: IC50 (second compound 1 µM)
6870 nM: IC50 (second compound 10 µM)
inactive: viability, T/C [1] 112% | viability, T/C [2] 100% | viability, T/C [3] 102% | viability, T/C [4] 101% | viability, T/C [5] 85.9% | viability, T/C [6] 35.6% | viability, T/C [7] 104% | viability, T/C [8] 106% | viability, T/C [9] 99.2% | viability, T/C [10] 101% | viability, T/C [11] 101% | viability, T/C [12] 33.8% | viability, T/C [13] 111% | viability, T/C [14] 99.9% | viability, T/C [15] 104% | viability, T/C [16] 106% | viability, T/C [17] 97.9% | viability, T/C [18] 43.8% | viability, T/C [19] 108% | viability, T/C [20] 109% | viability, T/C [21] 110% | viability, T/C [22] 101% | viability, T/C [23] 92.1% | viability, T/C [24] 35.8% | viability, T/C [25] 109% | viability, T/C [26] 101% | viability, T/C [27] 108% | viability, T/C [28] 103% | viability, T/C [29] 84.9% | viability, T/C [30] 42.7% | viability, T/C [31] 103% | viability, T/C [32] 108% | viability, T/C [33] 102% | viability, T/C [34] 100% | viability, T/C [35] 81.7% | viability, T/C [36] 34.6%
7220 nM: IC50 (second compound 0.0316 µM)

COc1cccc2c1C(=O)c1c(O)c3c(c(O)c1C2=O)CC(O)(C(=O)CO)CC3OC1CC(N)C(O)C(C)O1 (stereo not drawn) + Cc1cccc(N(C)C(=O)C2C(O)CCN2c2nc(C)cc(C(F)(F)F)c2C#N)c1
83.7 nM: IC50 (second compound 3.16 µM)
142 nM: IC50 (second compound 0.0316 µM)
83.6 nM: IC50 (second compound 1 µM)
inactive: viability, T/C [1] 73.8% | viability, T/C [2] 68.2% | viability, T/C [7] 77.1% | viability, T/C [8] 59.3% | viability, T/C [13] 89.2% | viability, T/C [14] 55.7% | viability, T/C [19] 102% | viability, T/C [20] 40.4% | viability, T/C [25] 99.3% | viability, T/C [26] 41% | viability, T/C [31] 94% | viability, T/C [32] 39%
79.5 nM: IC50 (second compound 10 µM)
123 nM: IC50 (second compound 0.1 µM)
115 nM: IC50 (second compound 0.316 µM)
active: viability, T/C [3] 8.09% | viability, T/C [4] 0.74% | viability, T/C [5] 1.88% | viability, T/C [6] 3.67% | viability, T/C [9] 7.54% | viability, T/C [10] 0.78% | viability, T/C [11] 3.07% | viability, T/C [12] 5.78% | viability, T/C [15] 9.71% | viability, T/C [16] 0.66% | viability, T/C [17] 2.56% | viability, T/C [18] 5.49% | viability, T/C [21] 7.53% | viability, T/C [22] 0.6% | viability, T/C [23] 2.63% | viability, T/C [24] 4.09% | viability, T/C [27] 6.13% | viability, T/C [28] 0.63% | viability, T/C [29] 3.14% | viability, T/C [30] 4.04% | viability, T/C [33] 5.5% | viability, T/C [34] 1.83% | viability, T/C [35] 3.46% | viability, T/C [36] 3.24%
